The text below walks through data of paper PMC10380488, “Cx43 Hemichannel and Panx1 Channel Modulation by Gap19 and ^10Panx1 Peptides” (International Journal of Molecular Sciences, 2023).

In test [1] the target is T1, Panx1 channels (Rattus norvegicus, UniProt P60570).
T1 construct: expressed in transfected cells; host or cells: C6 glioma cells (C6-Panx1), gift of Dr Christian C; Naus
The test can be described thus: Whole-cell patch-clamp, unitary Panx1 channel current activity in C6-Panx1 cells. The test is classed as cell-based. As to conditions: for nominal open probability (NPo) of Panx1 channels: C6-Panx1, step −30 to +70 mV, 30 s, mean ± SEM, control 0.37 ± 0.02. The source says:
(§1) We used HeLa cells stably transfected with Cx43 (HeLa-Cx43 [56]); endogenous expression of Panx1 is very low or absent in non-transfected HeLa cells. C6 glioma cells stably transfected with Panx1 (C6-Panx1, C-terminally myc-tagged; kind gift of Dr Christian C. Naus, University of British Columbia, Canada) were used for the Panx1 channel studies; Cx43 expression is low or undetectable [61] in these cells. HeLa cells were maintained in Dulbecco’s modified Eagle’s medium (DMEM; Invitrogen, Gent, Belgium), and C6 cells were grown in DMEM:Ham’s F12 (1:1—Invitrogen, Merelbeke, Belgium), all supplemented with 10% fetal bovine serum (FBS), 2 mM glutamine, 10 U/mL penicillin, 10 µg/mL streptomycin and 0.25 µg/mL fungizone. Stable exogenous expressions were maintained by supplementation of 1 and 3 µg/mL puromycin (Sigma-Aldrich, Bornem, Belgium) for HeLa-Cx43 and C6-Panx1 cells, respectively. Stable transfectants were subcultured into puromycin-free medium 2 days prior to experimentation. Cells were maintained at 37 °C and 10% (HeLa-Cx43) or 5% (C6-Panx1) CO2.
(§2) All experimental data were obtained with the patch-clamp technique in whole-cell recording mode on HeLa-Cx43 and C6-Panx1 cells. Extracellular solution was composed of the following (in mM): 150 NaCl, 4 CsCl, 2 CaCl2, 2 MgCl2, 2 pyruvic acid, 5 glucose and 5 HEPES at pH of 7.4, while the pipette solution consisted of the following (in mM): 125 CsCl, 10 sodium aspartate (NaAsp), 0.26 CaCl2, 1 MgCl2, 2 EGTA, 10 tetraethylammonium (TEA)-Cl and 5 HEPES at pH 7.2. The free Ca^2+ concentration of the pipette solution was estimated to be ~50 nM as calculated with WEBMAX (https://somapp.ucdmc.ucdavis.edu/pharmacology/bers/maxchelator/webmaxc/webmaxcS.htm; accessed on 20 September 2020). Whole-cell recording was performed under control conditions and in the presence of Gap19 or ^10Panx1. Gap19 was included in the pipette solution, while ^10Panx1 was added externally and preincubated for 45 min. Recordings were commenced 2 min after establishment of the whole-cell configuration. Currents were recorded with an EPC 7 PLUS patch-clamp amplifier (HEKA Elektronik, Germany). Unitary current activities were elicited by stepping the cells from a holding potential of −30 mV to a membrane potential (Vm) of +70 mV for 30 s. Data were digitized at 4 KHz using an NI USB-6221 data acquisition device (National Instruments, Austin, TX, USA) and WinWCP acquisition software designed by Dr. J. Dempster (University of Strathclyde, United Kingdom). Measured currents were filtered by a 7-pole Bessel low-pass filter at 1 KHz cut-off frequency. Transition analysis was performed as reported in [16]. Unitary channel conductances were determined from transition histograms as well as from all-point histograms and were obtained by fitting their frequencies to Gaussian distributions. Channel opening activity is expressed as nominal open probability NPo, denoting the number of active channels in the patch multiplied by the open probability.
(§3) Data were processed using Clampfit version 11.2 (Molecular Devices, San Jose, USA) and HemiGUI software as previously described. Results are expressed as mean ± SEM (unless otherwise stated), with n giving the number of traces, N the number of cells, and N the number of experiments on different cell culture dishes. Multiple groups were compared by one-way analysis of variance with post-hoc Dunnett’s or Bonferroni multiple comparison tests, making use of GraphPad PRISM 5.0 (GraphPad Software, Inc., La Jolla, CA). Results were considered statistically significant when p ≤ 0.05 (*; # for p ≤ 0.05, **; ## for p ≤ 0.01, ***; ### for p ≤ 0.001, and ****; #### for p ≤ 0.0001).

The next test deals with Cx43 C-terminal tail. As to conditions: cited from earlier work.
Test [2] concerns the target T1, Panx1 channels. As to conditions: 200 µM extracellular; high extracellular K^+; cited from earlier work. From the text:
(§4) Connexins and pannexins are two ubiquitous but distinct protein families forming membrane hemichannels (HCs) and channels in the plasma membrane, respectively. They facilitate the exchange of ions and small molecules (MW ≤ 1.5 kDa) between the intracellular and the extracellular compartment upon opening. Among these respective families, connexin-43 (Cx43) and pannexin-1 (Panx1) are the most abundant isotypes in the human body expressed in a wide array of tissues. Panx1 and Cx43 have several common properties, including the following: (i) an analogous tetra-spanning transmembrane topology with ...

The next test relates to Cx43 or Panx1 channels. As to conditions: 100 μM extracellular; HeLa cells expressing Cx43 or Panx1; cited from earlier work.
Text: as §4

The test system of test [3] is Cx43 HCs. Put plainly: Whole-cell patch-clamp, unitary Cx43 hemichannel current activity in HeLa-Cx43 cells. The test is classed as cell-based. As to conditions: for nominal open probability (NPo) of Cx43 HCs: HeLa-Cx43, step −30 to +70 mV, 30 s, mean ± SEM, control 0.48 ± 0.02; for conductance γ of Cx43 HC, subconductance state, transition histogram / unitary conductance γ of Cx43 HC, fully open state, transition histogram: Figure 3B, mean ± SD.
Text: as §1, §2, §3
For orientation: In patch-clamp work, channel activity is measured electrically.

The subject of test [4] is Cx43 HCs. As to conditions: cited from earlier work. The source says: However, this concentration decreases the NPo of Cx43 HCs by ~83% (Figure 2B; for traces, see Figure 3).
[5] abbreviates: 100 μM Gap19 intracellular, N = 12, n = 98.
[6] abbreviates: 200 μM Gap19 intracellular, N = 15, n = 122.

Several values for one entry are separate records, joined by “and”; a condition that tells them apart may be missing. Identical values can stand only once. Entries after “also recorded” stand apart in the source; their conditions may differ.

T1 sequence (P60570 whole entry): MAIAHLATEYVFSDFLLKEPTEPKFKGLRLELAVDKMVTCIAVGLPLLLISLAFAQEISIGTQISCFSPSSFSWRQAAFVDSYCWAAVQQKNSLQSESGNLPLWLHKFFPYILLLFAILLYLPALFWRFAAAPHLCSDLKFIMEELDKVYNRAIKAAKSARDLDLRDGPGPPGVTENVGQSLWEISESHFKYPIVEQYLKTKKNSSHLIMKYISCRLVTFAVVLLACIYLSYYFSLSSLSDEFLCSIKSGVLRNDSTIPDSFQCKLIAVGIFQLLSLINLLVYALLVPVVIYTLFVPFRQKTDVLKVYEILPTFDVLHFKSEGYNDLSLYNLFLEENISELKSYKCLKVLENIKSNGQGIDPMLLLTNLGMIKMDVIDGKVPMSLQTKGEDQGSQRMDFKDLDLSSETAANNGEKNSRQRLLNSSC

As to KQIEIKKFK [Gap19], on Panx1 channels [1] (100 μM Gap19 intracellular), the “effect on Panx1 channels” value is “without affecting the Panx1 channels”. For the same sequence, the “nominal open probability (NPo) of Panx1 channels” value at Panx1 channels [1] (100 μM Gap19 intracellular (pipette), N = 12 cells, n = 76 traces) amounted to 0.34 ± 0.03; at Panx1 channels [1] (200 μM Gap19 intracellular (pipette), N = 9 cells, n = 70 traces), 0.30 ± 0.03; at Panx1 channels [1] (500 μM Gap19 intracellular (pipette), N = 10 cells, n = 87 traces), 0.28 ± 0.03. For the same sequence, on Panx1 channels [1] (200 µM Gap19 intracellular, Figure 1C), the “effect on open-state events of Panx1, all-point histograms” value is “some effect; also recorded: to some extent”. Moreover, the “reduction of NPo of Panx1 channels” value on Panx1 channels [1] (500 μM Gap19 intracellular, vs control, significant) is ~ 25% and 26%. At Panx1 channels [1] (100 and 200 μM Gap19 intracellular (below 500 μM)), the “effect on Panx1 channel activity (NPo)” value is on record as “did not significantly affect the NPo of the Panx1 channel; also recorded: non-significant effects on Panx1 channel activity; also recorded: without affecting Panx1 channel function; also recorded: No Effect below 500 µM”. The “fast-flickering closures of Panx1 channel” value at Panx1 channels [1] (traces of Panx1 channel activity (Supplementary Figure S2)) was “not observed”. Further, the “interaction with the Cx43 C-terminal tail” value in the test on Cx43 C-terminal tail is reported as “interacts with the Cx43 C-terminal tail”. In addition, at Panx1 channels [2], the “effect on ATP release from Panx1-overexpressing cells” value is recorded as “does not affect ATP release”. Besides, the “selectivity for Cx43 or Panx1 channels” value in the test with Cx43 or Panx1 channels is given as “good selectivity”. Moreover, the “reduction of NPo of Cx43 HCs” value is recorded as “significantly reduces the NPo of Cx43 HCs; also recorded: more than halved the NPo” in the test on Cx43 HCs [3] (100 μM Gap19 intracellular) and 84% in the test with Cx43 HCs [3] (500 μM Gap19 intracellular, vs control). The “nominal open probability (NPo) of Cx43 HCs” value with Cx43 HCs [3] (100 μM Gap19 intracellular (pipette), N = 12 cells, n = 98 traces) came to 0.21 ± 0.02; with Cx43 HCs [3] (200 μM Gap19 intracellular (pipette), N = 15 cells, n = 122 traces), 0.18 ± 0.02; in the test with Cx43 HCs [3] (500 μM Gap19 intracellular (pipette), N = 12 cells, n = 88 traces), 0.08 ± 0.01. Besides, the “conductance γ of Cx43 HC, subconductance state, transition histogram” value in the test with Cx43 HCs [3] (setting [5]) is listed as 86 ± 31 pS; in the test on Cx43 HCs [3] (setting [6]), 87 ± 27 pS. The “unitary conductance γ of Cx43 HC, fully open state, transition histogram” value is 201 ± 50 pS in the test with Cx43 HCs [3] (setting [5]) and 201 ± 45 pS in the test on Cx43 HCs [3] (setting [6]). The “conductance γ of Cx43 HC, all-point histogram” value in the test on Cx43 HCs [3] (Figure 3C, 100 μM Gap19 intracellular) is 204 ± 46 pS. In the test on Cx43 HCs [3] (Gap19 intracellular / ^10Panx1 extracellular, 100-500 μM (Gap19 100–200 μM)), the “inhibition of Cx43 HC opening activity (in words)” value is “Inhibited; also recorded: concentration-dependent and significant inhibition; also recorded: concentration-dependently inhibits Cx43 HCs; also recorded: significantly inhibits Cx43 HCs”. The “effect on Cx43 HC gating (fully open state vs subconductance state)” value in the test on Cx43 HCs [3] (Gap19 intracellular / ^10Panx1 extracellular, from 100 µM) is “reduced the frequency of transitions to the fully open state and increased the propensity of subconductance transitions starting from 100 µM; also recorded: increased gating to the subconductance state; also recorded: acts as a gating modifier, reducing transitions to the fully open state (~210 pS) while increasing the number of transitions to the subconductance state (~80 pS”. Besides, the “effect on Cx43 HC gating” value in the test on Cx43 HCs [4] was “gating modifier”.
